# Source: US9258995B2, “Organ cold storage composition and methods of use” (BOARD OF TRUSTEES OF THE UNIVERSITY OF ARKANSAS, priority 2009, dated 2016)
# Legend:
# [1] = tested on: NRK cells; assay: LDH cytotoxicity assay, CS and CS plus rewarming; format: cell-based; conditions: 1 μM
# Method: (§1) Normal rat kidney proximal tubular cells (NRK-52E; American Type Culture Collection, Manassas, Va.) were maintained in six-well 100 or 150-mm, or 150-mm plates in a humidified incubator gassed with 5% CO2 and 95% air at 37° C. in DMEM (Invitrogen, Carlsbad, Calif.) containing 5% fetal calf serum (FCS). Cells were grown to 60% confluence and divided into four treatment groups: 1) untreated (Untx), 2) CS, 3) CS+MitoQ, and 4) CS+DecylTPP. Untreated cells remained at 37° C. in DMEM containing 5% FCS (group 1). CS was initiated by washing cells with cold PBS (Invitrogen) twice and storing them in UW/Viaspan solution alone (4 h at 4° C.) (group 2), CS+MitoQ (1 μM) (group 3), or CS+DecylTPP (1 μM) (group 4). In separate experiments, cells were exposed to CS plus RW by replacing UW solution alone or UW solution containing MitoQ or DecylTPP with DMEM containing 5% FCS overnight (18 h at 37° C.).
# Cell cytotoxicity was determined using the LDH-Cytotoxicity Assay Kit II (Biovision Research Products, Mountain View, Calif.) according to the manufacturer's instructions. Absorbance was measured at 450 nm using a SpectraMax 190 microplate reader and SpectraMax software (Molecular Devices, Sunnyvale, Calif.). Renal cell death was determined using TUNEL staining. Kidney sections were deparaffinized, rehydrated, and exposed to antigen retrieval (20-min incubation at 95° C. with 10 mM sodium citrate buffer, pH 6.0) followed by washing with distilled water and quenching of endogenous peroxidase. Sections were immersed in TdT labeling buffer and then incubated in a humidified chamber with the labeling reaction mix from the TAGS 2 TdT-DAB In Situ Apoptosis Detection kit (Trevigen, Inc., Gaithersburg, Md.) for 1 h at room temperature. The reaction was stopped with TdT stop buffer, and slides were subsequently washed with PBS. Sections were incubated for 10 min with streptavidin-HRP followed by development with diaminobenzidine solution, counterstaining with Mayer's hematoxylin, dehydration, and mounting with Cytoseal-60. The amount of cell death was calculated by averaging the number of cells positive for TUNEL (brown staining) in 10 different fields (cortex and medulla) (20×). All images were taken at equal exposure times (40×oil).
# [2] = tested on: rat kidneys; assay: Periodic acid-Schiff morphological assessment of renal injury during CS; conditions: 4 h CS, 100 μM
# Method: All animals were treated according to the National Institutes of Health Guide for the Care and Use of Laboratory Animals and the University of Arkansas for Medical Sciences Institutional Animal Care and Use Committee guidelines. Male Fischer 344 inbred rats (Charles Rivers Laboratories, Inc., Wilmington, Mass.) weighing between 250 and 300 g were anesthetized with ethrane, followed by shaving and prepping with betadine. […] Bulldog clamps were placed on the aorta and vena cava (proximal and distal to the renal vessels) to prevent blood flow to the kidneys. A 22-gauge surgical needle was used to puncture the rat's aorta to flush the renal grafts with saline (10 ml per kidney) using a small catheter. Once the kidneys started to turn light brown (perfusion), another vent was formed in the vena cava to allow blood flow from the kidneys. Once both kidneys were completely flushed, the right kidney was recovered and served as a control (group 1), and the left kidney was exposed to CS alone for 4 h at 4° C. […]
# Renal sections were assessed for tissue injury using the periodic acid-Schiff reaction. […] Morphological evaluation of tubular dilation, brush border loss, and cellular debris/tubular cast formation were performed blindly with light microscopy and assessed semiquantitatively according to the following scoring system: 0, no changes; 1, mild changes; 2, moderate changes, and 3, severe changes.
# [3] = tested on: NRK cells; assay: Nitrotyrosine immunocytochemistry, CS plus rewarming; format: cell-based, rat; conditions: 4-h CS plus overnight (18 h) RW, 1 μM added during CS
# Method: as §1
# (§2) NRK cells (groups 1-4) were assessed for nitrotyrosine formation as previously described. […] Nitrotyrosine staining was evaluated and captured with equal exposure times using a Nikon Eclipse 800 microscope (40×oil). Images were quantified by averaging the mean intensity fluorescence of five random cells in three different fields using Nikon N is Elements software. Renal tissue sections were assessed for the presence of nitrotyrosine protein adducts by nitrotyrosine immunohistochemistry. […]
# [4] = tested on: NRK cells; assay: Nitrotyrosine immunocytochemistry during CS; format: cell-based, rat; conditions: 4 h CS, 1 μM
# Method: as §1, §2
# [5] = two phase II clinical trials for Parkinson's disease and hepatitis C virus; cited from earlier work
smiles,measurement,setting,value
"COC1=C(OC)C(=O)C(CCCCCCCCCC[P+](c2ccccc2)(c2ccccc2)c2ccccc2)=C(C)C1=O [MitoQ, mitoquinone]",decrease of cell death (LDH cytotoxicity),[1]; CS alone,approximately 2 fold
same,decrease of cell death (LDH cytotoxicity),[1]; CS.RW,approximately 2 fold
same,renal histology / renal injury (periodic acid-Schiff staining),[2],improved renal histology significantly
same,nitrotyrosine staining during CS.RW,[3],attenuated nitrotyrosine staining significantly
same,attenuation of nitrotyrosine formation,[4],~2 fold
same,safety and tolerability,[5],safe and well tolerated
